Experimental data published in ChEMBL document CHEMBL1142376, “Novel CADD-based peptidyl vinyl ester derivatives as potential proteasome inhibitors” (Bioorg Med Chem Lett, 2008).

test system: KB; test: Antiproliferative activity against human KB cells at 10 umole; format: functional

Compound | Activity [%]
CCOC(=O)/C=C/[C@H](C[C@@H]1CCNC1=O)NC(=O)[C@@H](NC(=O)[C@@H](NC(=O)OC(C)(C)C)[C@@H](C)CC)[C@@H](C)O | -10.29
CCOC(=O)/C=C/[C@H](Cc1ccccc1)NC(=O)[C@H](CC(C)C)NC(=O)[C@H](CC(C)C)NC(=O)OC(C)(C)C | -1.67
CCOC(=O)/C=C/[C@H](C[C@@H]1CCNC1=O)NC(=O)[C@H](Cc1ccccc1)NC(=O)[C@H](CC(C)C)NC(=O)OC(C)(C)C | -1.56
CCOC(=O)/C=C/[C@H](Cc1ccccc1)NC(=O)[C@H](CO)NC(=O)[C@@H](NC(=O)OC(C)(C)C)C(C)C | -6.79
CCOC(=O)/C=C/[C@H](Cc1ccc(O)cc1)NC(=O)[C@H](CC(C)C)NC(=O)[C@H](CC(C)C)NC(=O)OC(C)(C)C | -5.99
CCOC(=O)/C=C/[C@H](C[C@@H]1CCNC1=O)NC(=O)[C@H](CC(C)C)NC(=O)[C@H](CC(C)C)NC(=O)OC(C)(C)C | -14.03
CCOC(=O)/C=C/[C@H](Cc1ccccc1)NC(=O)[C@@H](NC(=O)OC(C)(C)C)[C@@H](C)CC | -0.18

test system: not listed separately; test: Inhibition of chymotrypsin-like activity of 20S proteasome

Compound | IC50 [µmol]
CCOC(=O)/C=C/[C@H](C[C@@H]1CCNC1=O)NC(=O)[C@@H](NC(=O)[C@@H](NC(=O)OC(C)(C)C)[C@@H](C)CC)[C@@H](C)O | > 100
CCOC(=O)/C=C/[C@H](C[C@@H]1CCNC1=O)NC(=O)[C@H](Cc1ccccc1)NC(=O)[C@H](CC(C)C)NC(=O)OC(C)(C)C | > 100
CCOC(=O)/C=C/[C@H](C[C@@H]1CCNC1=O)NC(=O)[C@H](CC(C)C)NC(=O)[C@H](CC(C)C)NC(=O)OC(C)(C)C | > 100
CCOC(=O)/C=C/[C@H](Cc1ccccc1)NC(=O)[C@@H](NC(=O)OC(C)(C)C)[C@@H](C)CC | > 100

Now from value to compound:

IC50 [µmol] | Compound
> 100 | CCOC(=O)/C=C/[C@H](Cc1ccccc1)NC(=O)[C@H](CC(C)C)NC(=O)[C@H](CC(C)C)NC(=O)OC(C)(C)C
> 100 | CCOC(=O)/C=C/[C@H](Cc1ccccc1)NC(=O)[C@H](CO)NC(=O)[C@@H](NC(=O)OC(C)(C)C)C(C)C
> 100 | CCOC(=O)/C=C/[C@H](Cc1ccc(O)cc1)NC(=O)[C@H](CC(C)C)NC(=O)[C@H](CC(C)C)NC(=O)OC(C)(C)C

test system: Bel-7402; test: Antiproliferative activity against human Bel7402 cells at 10 umole; format: functional

Compound | Activity [%]
CCOC(=O)/C=C/[C@H](C[C@@H]1CCNC1=O)NC(=O)[C@@H](NC(=O)[C@@H](NC(=O)OC(C)(C)C)[C@@H](C)CC)[C@@H](C)O | -16.67
CCOC(=O)/C=C/[C@H](Cc1ccccc1)NC(=O)[C@H](CC(C)C)NC(=O)[C@H](CC(C)C)NC(=O)OC(C)(C)C | -12.87
CCOC(=O)/C=C/[C@H](C[C@@H]1CCNC1=O)NC(=O)[C@H](Cc1ccccc1)NC(=O)[C@H](CC(C)C)NC(=O)OC(C)(C)C | -1.63
CCOC(=O)/C=C/[C@H](Cc1ccccc1)NC(=O)[C@H](CO)NC(=O)[C@@H](NC(=O)OC(C)(C)C)C(C)C | -11.09
CCOC(=O)/C=C/[C@H](Cc1ccc(O)cc1)NC(=O)[C@H](CC(C)C)NC(=O)[C@H](CC(C)C)NC(=O)OC(C)(C)C | -6.95
CCOC(=O)/C=C/[C@H](C[C@@H]1CCNC1=O)NC(=O)[C@H](CC(C)C)NC(=O)[C@H](CC(C)C)NC(=O)OC(C)(C)C | -2.4
CCOC(=O)/C=C/[C@H](Cc1ccccc1)NC(=O)[C@@H](NC(=O)OC(C)(C)C)[C@@H](C)CC | -7.74

test system: not listed separately; test: Inhibition of post acidic-like activity of 20S proteasome

Compound | IC50 [µmol]
CCOC(=O)/C=C/[C@H](C[C@@H]1CCNC1=O)NC(=O)[C@@H](NC(=O)[C@@H](NC(=O)OC(C)(C)C)[C@@H](C)CC)[C@@H](C)O | > 100
CCOC(=O)/C=C/[C@H](C[C@@H]1CCNC1=O)NC(=O)[C@H](Cc1ccccc1)NC(=O)[C@H](CC(C)C)NC(=O)OC(C)(C)C | > 100
CCOC(=O)/C=C/[C@H](C[C@@H]1CCNC1=O)NC(=O)[C@H](CC(C)C)NC(=O)[C@H](CC(C)C)NC(=O)OC(C)(C)C | > 100
CCOC(=O)/C=C/[C@H](Cc1ccccc1)NC(=O)[C@@H](NC(=O)OC(C)(C)C)[C@@H](C)CC | > 100

Next, values leading:

IC50 [µmol] | Compound
> 100 | CCOC(=O)/C=C/[C@H](Cc1ccccc1)NC(=O)[C@H](CC(C)C)NC(=O)[C@H](CC(C)C)NC(=O)OC(C)(C)C
> 100 | CCOC(=O)/C=C/[C@H](Cc1ccccc1)NC(=O)[C@H](CO)NC(=O)[C@@H](NC(=O)OC(C)(C)C)C(C)C
> 100 | CCOC(=O)/C=C/[C@H](Cc1ccc(O)cc1)NC(=O)[C@H](CC(C)C)NC(=O)[C@H](CC(C)C)NC(=O)OC(C)(C)C

test system: not listed separately; test: Inhibition of trypsin-like activity of 20S proteasome

Compound | IC50 [µmol]
CCOC(=O)/C=C/[C@H](C[C@@H]1CCNC1=O)NC(=O)[C@@H](NC(=O)[C@@H](NC(=O)OC(C)(C)C)[C@@H](C)CC)[C@@H](C)O | > 100
CCOC(=O)/C=C/[C@H](C[C@@H]1CCNC1=O)NC(=O)[C@H](Cc1ccccc1)NC(=O)[C@H](CC(C)C)NC(=O)OC(C)(C)C | > 100
CCOC(=O)/C=C/[C@H](C[C@@H]1CCNC1=O)NC(=O)[C@H](CC(C)C)NC(=O)[C@H](CC(C)C)NC(=O)OC(C)(C)C | > 100
CCOC(=O)/C=C/[C@H](Cc1ccccc1)NC(=O)[C@@H](NC(=O)OC(C)(C)C)[C@@H](C)CC | > 100

The remaining lines, values ahead:

IC50 [µmol] | Compound
> 100 | CCOC(=O)/C=C/[C@H](Cc1ccccc1)NC(=O)[C@H](CC(C)C)NC(=O)[C@H](CC(C)C)NC(=O)OC(C)(C)C
> 100 | CCOC(=O)/C=C/[C@H](Cc1ccccc1)NC(=O)[C@H](CO)NC(=O)[C@@H](NC(=O)OC(C)(C)C)C(C)C
> 100 | CCOC(=O)/C=C/[C@H](Cc1ccc(O)cc1)NC(=O)[C@H](CC(C)C)NC(=O)[C@H](CC(C)C)NC(=O)OC(C)(C)C

test system: BGC-823; test: Antiproliferative activity against human BGC823 cells at 10 umole; format: functional

Compound | Activity [%]
CCOC(=O)/C=C/[C@H](C[C@@H]1CCNC1=O)NC(=O)[C@@H](NC(=O)[C@@H](NC(=O)OC(C)(C)C)[C@@H](C)CC)[C@@H](C)O | 0.69
CCOC(=O)/C=C/[C@H](Cc1ccccc1)NC(=O)[C@H](CC(C)C)NC(=O)[C@H](CC(C)C)NC(=O)OC(C)(C)C | 9.95
CCOC(=O)/C=C/[C@H](C[C@@H]1CCNC1=O)NC(=O)[C@H](Cc1ccccc1)NC(=O)[C@H](CC(C)C)NC(=O)OC(C)(C)C | 13.89
CCOC(=O)/C=C/[C@H](Cc1ccccc1)NC(=O)[C@H](CO)NC(=O)[C@@H](NC(=O)OC(C)(C)C)C(C)C | 0.04
CCOC(=O)/C=C/[C@H](Cc1ccc(O)cc1)NC(=O)[C@H](CC(C)C)NC(=O)[C@H](CC(C)C)NC(=O)OC(C)(C)C | 0.02
CCOC(=O)/C=C/[C@H](C[C@@H]1CCNC1=O)NC(=O)[C@H](CC(C)C)NC(=O)[C@H](CC(C)C)NC(=O)OC(C)(C)C | 21.44
CCOC(=O)/C=C/[C@H](Cc1ccccc1)NC(=O)[C@@H](NC(=O)OC(C)(C)C)[C@@H](C)CC | 24.14

test system: HL-60; test: Antiproliferative activity against human HL60 cells at 10 umole; format: functional

Compound | Activity [%]
CCOC(=O)/C=C/[C@H](C[C@@H]1CCNC1=O)NC(=O)[C@@H](NC(=O)[C@@H](NC(=O)OC(C)(C)C)[C@@H](C)CC)[C@@H](C)O | 0.71
CCOC(=O)/C=C/[C@H](Cc1ccccc1)NC(=O)[C@H](CC(C)C)NC(=O)[C@H](CC(C)C)NC(=O)OC(C)(C)C | 6.13
CCOC(=O)/C=C/[C@H](C[C@@H]1CCNC1=O)NC(=O)[C@H](Cc1ccccc1)NC(=O)[C@H](CC(C)C)NC(=O)OC(C)(C)C | -7.61
CCOC(=O)/C=C/[C@H](Cc1ccccc1)NC(=O)[C@H](CO)NC(=O)[C@@H](NC(=O)OC(C)(C)C)C(C)C | 0.36
CCOC(=O)/C=C/[C@H](Cc1ccc(O)cc1)NC(=O)[C@H](CC(C)C)NC(=O)[C@H](CC(C)C)NC(=O)OC(C)(C)C | -2.64
CCOC(=O)/C=C/[C@H](C[C@@H]1CCNC1=O)NC(=O)[C@H](CC(C)C)NC(=O)[C@H](CC(C)C)NC(=O)OC(C)(C)C | 36.97
CCOC(=O)/C=C/[C@H](Cc1ccccc1)NC(=O)[C@@H](NC(=O)OC(C)(C)C)[C@@H](C)CC | 29.56
